Molecular target: T1, human α7 receptor (Homo sapiens, UniProt P36544)
T1 construct: host or cells: rat GH4C1 cell line
Assay: α7 NNR flux assay (FDSS Ca assay, Calcium-4 dye, positive allosteric modulation of acetylcholine response)
Assay type: cell-based
Conditions: human α7 receptor stably expressed in rat GH4C1 cell line; acetylcholine 20 μM (~EC100); % modulation relative to reference PNU-120596 set to 100%
Protocol: The nicotinic acetylcholine receptor α7 is a calcium-permeable ion channel, whose activity can be measured by over expression in mammalian cells or oocytes in this version of the assay, the human α7 receptor is stably expressed in the rat GH4C1 cell line. The assay was used to identify positive allosteric modulators (PAMs) of the α7 receptor. Activation of the channel was measured by loading cells with the calcium-sensitive fluorescent dye Calcium-4 (Assay kit from Molecular Devices), and then measuring real-time changes in fluorescence upon treatment with test compounds.
The cell line ChanClone GH4C1-nAChRalpha7 from Genionics was seeded from frozen stock in 384-well plates in culture media 2-3 days before experiment to form an approximately 80% confluent layer on the day of experiment.
Two or three days before the experiment the cells were seeded in 384 well plates from Greiner bio-one (781946, CELLCOAT, Poly-D-Lysine, black, μClear).
The cells were seeded in 384 well plates with 30 μL/well (30000 cells/well) while stirring the cell suspension or otherwise preventing the cells from precipitating.
The loading buffer was 5% v/v Calcium-4 Kit and 2.5 mM Probenecid in assay buffer.
Culture media were removed from the cell plates and 20 μL loading buffer was added in each well. The cell plates were placed in trays and incubated 90 minutes in the incubator (37° C.). Thereafter the plates were incubated 30 minutes at room temperature, still protected from light.
The assay buffer was HBSS with 20 mM HEPES, pH 7.4 and 3 mM CaCl2.
200 nL 10 mM compound solution in DMSO was diluted in 50 μL assay buffer. The final test concentrations in the cell plates were 20-10-5-2.5-1:25-0.625-0.312-0.156-0.078-0.039 μM. Assay buffer and 3 μM PNU-120596 were used for control.
The agonist acetylcholine was added to a final concentration of 20 μM (˜EC100).
In the FDSS7000 the Ex480-Em540 was measured with 1 second intervals. The baseline was made of 5 frames before addition of test compounds, and 95 frames more were made before addition of acetylcholine. The measurement stopped 30 frames after the 2nd addition. Raw data for each well were collected as “the maximum fluorescence count” in the interval 100-131 seconds and as “the average fluorescence count” in the interval 96-100 seconds. The positive allosteric modulation in the 2nd addition was the enhancement of agonist response with test compound compared to agonist alone.
Results were calculated as % modulation of test compound compared to the reference PNU-120596 set to 100%.

T1 sequence (P36544 23-502): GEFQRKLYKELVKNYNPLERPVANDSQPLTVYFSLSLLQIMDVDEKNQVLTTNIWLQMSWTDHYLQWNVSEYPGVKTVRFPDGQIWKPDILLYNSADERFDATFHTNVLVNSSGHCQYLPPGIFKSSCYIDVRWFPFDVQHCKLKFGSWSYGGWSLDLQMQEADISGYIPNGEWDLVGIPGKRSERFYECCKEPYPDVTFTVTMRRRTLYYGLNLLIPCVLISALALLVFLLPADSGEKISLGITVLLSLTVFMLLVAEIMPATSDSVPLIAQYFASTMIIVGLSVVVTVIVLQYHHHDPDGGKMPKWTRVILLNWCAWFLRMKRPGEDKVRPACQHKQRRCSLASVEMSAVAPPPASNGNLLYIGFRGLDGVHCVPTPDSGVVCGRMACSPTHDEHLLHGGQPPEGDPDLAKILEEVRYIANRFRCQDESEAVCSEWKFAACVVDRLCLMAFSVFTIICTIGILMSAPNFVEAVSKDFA

Compound	EC50 [µM]
CC(C)Oc1ccc([C@H](C)NC(=O)[C@H]2C[C@@H]2c2ccccc2)cn1 [Compound 1, (1S,2S)-2-Phenyl-cyclopropanecarboxylic acid [(S)-1-(6-isopropoxy-pyridin-3-yl)-ethyl]-amide]	0.67
Cc1ccc([C@H](C)NC(=O)[C@H]2C[C@@H]2c2ccccc2)nc1 [Compound 2, (1S,2S)-2-Phenyl-cyclopropanecarboxylic acid [(S)-1-(5-methyl-pyridin-2-yl)-ethyl]-amide]	5.6
COc1ccc([C@H](C)NC(=O)[C@H]2C[C@@H]2c2ccccc2)cn1 [Compound 3, (S, 2S)-2-Phenyl-cyclopropanecarboxylic acid-[(S)-1-(6-methoxy-pyridin-3-yl)-ethyl]-amide]	5.8
Cc1ccc([C@H](C)NC(=O)[C@H]2C[C@@H]2c2ccccc2)cn1 [Compound 4, (1S,2S)-2-Phenyl-cyclopropanecarboxylic acid [(S)-1-(6-methyl-pyridin-3-yl)-ethyl]-amide]	8.1
C[C@H](NC(=O)[C@H]1C[C@@H]1c1ccccc1)c1ccc(C#N)nc1 [Compound 5, (1S,2S)-2-Phenyl-cyclopropanecarboxylic acid [(S)-1-(6-cyano-pyridin-3-yl)-ethyl]-amide]	7.7
C[C@H](NC(=O)[C@H]1C[C@@H]1c1ccccc1)c1ccc(C(F)(F)F)nc1 [Compound 6, (1S,2S)-2-Phenyl-cyclopropanecarboxylic acid [(S)-1-(6-trifluoromethyl-pyridin-3-yl)-ethyl]-amide]	5.2
CCOc1ccc([C@H](C)NC(=O)[C@H]2C[C@@H]2c2ccccc2)cn1 [Compound 7, (1S,2S)-2-Phenyl-cyclopropanecarboxylic acid [(S)-1-(6-ethoxy-pyridin-3-yl)-ethyl]-amide]	0.96
CCc1ccc([C@H](C)NC(=O)[C@H]2C[C@@H]2c2ccccc2)cn1 [Compound 8, (1S,2S)-2-Phenyl-cyclopropanecarboxylic acid [(S)-1-(6-ethyl-pyridin-3-yl)-ethyl]-amide]	3.7
COCc1ccc([C@H](C)NC(=O)[C@H]2C[C@@H]2c2ccccc2)cn1 [Compound 9, (1S,2S)-2-Phenyl-cyclopropanecarboxylic acid [(S)-1-(6-methoxymethyl-pyridin-3-yl)-ethyl]-amide]	6.2
C[C@H](NC(=O)[C@H]1C[C@@H]1c1ccccc1)c1ccc(OCC(F)(F)F)nc1 [Compound 10, (1S,2S)-2-Phenyl-cyclopropanecarboxylic acid {(S)-1-[6-(2,2,2-trifluoro-ethoxy)-pyridin-3-yl]-ethyl}-amide]	1.9
COCCOc1ccc([C@H](C)NC(=O)[C@H]2C[C@@H]2c2ccccc2)cn1 [Compound 11, (1S,2S)-2-Phenyl-cyclopropanecarboxylic acid {(S)-1-[6-(2-methoxy-ethoxy)-pyridin-3-yl]-ethyl}-amide]	3.8
CCOc1cc([C@H](C)NC(=O)[C@H]2C[C@@H]2c2ccccc2)ccn1 [Compound 12, (1S,2S)-2-Phenyl-cyclopropanecarboxylic acid [(S)-1-(2-ethoxy-pyridin-4-yl)-ethyl]-amide]	1.2
C[C@H](NC(=O)[C@H]1C[C@@H]1c1ccccc1)c1ccc(O[C@H]2CCOC2)nc1 [Compound 13, (1S,2S)-2-Phenyl-cyclopropanecarboxylic acid [(S)-1-{6-[(S)-(tetrahydro-furan-3-yl)oxy]-pyridin-3-yl]-ethyl}-amide]	1.6
C[C@H](NC(=O)[C@H]1C[C@@H]1c1ccccc1)c1ccc(O[C@@H]2CCOC2)nc1 [Compound 14, (1S,2S)-2-Phenyl-cyclopropanecarboxylic acid [(S)-1-{6-[(R)-(tetrahydro-furan-3-yl)oxy]-pyridin-3-yl]-ethyl}-amide]	1.6
C[C@H](NC(=O)[C@H]1C[C@@H]1c1ccccc1)c1cnc2c(c1)OCO2 [Compound 15, (1S,2S)-2-Phenyl-cyclopropanecarboxylic acid ((S)-1-[1,3]dioxolo[4,5-b]pyridin-6-yl-ethyl)-amide]	5.6
C[C@H](NC(=O)[C@H]1C[C@@H]1c1ccccc1)c1cnc2c(c1)OCCO2 [Compound 16, (1S,2S)-2-Phenyl-cyclopropanecarboxylic acid [(S)-1-(2,3-dihydro-[1,4]dioxino[2,3-b]pyridin-7-yl)-ethyl]-amide]	6.8

Now from value to molecule:

EC50 [µM]	Compound
3.7	CCOc1ncc([C@H](C)NC(=O)[C@H]2C[C@@H]2c2ccccc2)cn1 [Compound 17, (1S,2S)-2-Phenyl-cyclopropanecarboxylic acid [(S)-1-(2-ethoxy-pyrimidin-5-yl)-ethyl]-amide]
3.7	C[C@H](NC(=O)[C@H]1C[C@@H]1c1ccccc1)c1ccc(Cl)nc1 [Compound 18, (1S,2S)-2-Phenyl-cyclopropanecarboxylic acid [(S)-1-(6-chloro-pyridin-3-yl)-ethyl]-amide]
0.64	CCCOc1ccc([C@H](CO)NC(=O)[C@H]2C[C@@H]2c2ccccc2)cn1 [Compound 21, (1S,2S)-2-Phenyl-cyclopropanecarboxylic acid [(R)-2-hydroxy-1-(6-propoxy-pyridin-3-yl)-ethyl]-amide]
5.5	O=C(N[C@@H](CO)c1ccc(C(F)(F)F)nc1)[C@H]1C[C@@H]1c1ccccc1 [Compound 22, (1S,2S)-2-Phenyl-cyclopropanecarboxylic acid [(R)-2-hydroxy-1-(6-trifluoromethyl-pyridin-3-yl)-ethyl]-amide]
7.6	N#Cc1ccc([C@H](CO)NC(=O)[C@H]2C[C@@H]2c2ccccc2)nc1 [Compound 23, (1S,2S)-2-Phenyl-cyclopropanecarboxylic acid [(R)-1-(5-cyano-pyridin-2-yl)-2-hydroxy-ethyl]-amide]
5.2	COc1ccc([C@H](CO)NC(=O)[C@H]2C[C@@H]2c2ccccc2)cn1 [Compound 24, (1S,2S)-2-Phenyl-cyclopropanecarboxylic acid [(R)-2-hydroxy-1-(6-methoxy-pyridin-3-yl)-ethyl]-amide]
7.3	Cc1ccc([C@H](CO)NC(=O)[C@H]2C[C@@H]2c2ccccc2)cn1 [Compound 25, (1S,2S)-2-Phenyl-cyclopropanecarboxylic acid [(R)-2-hydroxy-1-(6-methyl-pyridin-3-yl)-ethyl]-amide]
0.39	CC(C)Oc1ccc([C@H](CO)NC(=O)[C@H]2C[C@@H]2c2ccccc2)cn1 [Compound 26, (1S,2S)-2-Phenyl-cyclopropanecarboxylic acid [(R)-2-hydroxy-1-(6-isopropoxy-pyridin-3-yl)-ethyl]-amide]
0.39	CCOc1ccc([C@H](CO)NC(=O)[C@H]2C[C@@H]2c2cccc(F)c2)cn1 [Compound 27, (1S,2S)-2-(3-Fluoro-phenyl)-cyclopropanecarboxylic acid [(R)-1-(6-ethoxy-pyridin-3-yl)-2-hydroxy-ethyl]-amide]
0.62	CCOc1ccc([C@H](CO)NC(=O)[C@H]2C[C@@H]2c2ccc(F)cc2)cn1 [Compound 28, (1S,2S)-2-(4-Fluoro-phenyl)-cyclopropanecarboxylic acid [(R)-1-(6-ethoxy-pyridin-3-yl)-2-hydroxy-ethyl]-amide]
0.86	CCCOc1ccc([C@H](CO)NC(=O)[C@H]2C[C@@H]2c2cccc(F)c2)cn1 [Compound 29, (1S,2S)-2-(3-Fluoro-phenyl)-cyclopropanecarboxylic acid [(R)-2-hydroxy-1-(6-propoxy-pyridin-3-yl)-ethyl]-amide]
1.7	[2H]C([2H])([2H])COc1ccc([C@H](CO)NC(=O)[C@H]2C[C@@H]2c2ccccc2)cn1 [Compound 31, (1S,2S)-2-Phenyl-cyclopropanecarboxylic acid [(R)-1-(6-(2,2,2-d3)-ethoxy-pyridin-3-yl)-2-hydroxy-ethyl]-amide]
0.53	[2H]C([2H])(C)Oc1ccc([C@H](CO)NC(=O)[C@H]2C[C@@H]2c2cccc(F)c2)cn1 [Compound 32, (1S,2S)-2-(3-Fluoro-phenyl)-cyclopropanecarboxylic acid [(R)-1-(6-(1,1-d2)-ethoxy-pyridin-3-yl)-2-hydroxy-ethyl]-amide]
1	CCOc1ccc([C@H](CO)NC(=O)[C@H]2C[C@@H]2c2ccccc2)cn1 [Compound 33, (1S,2S)-2-Phenyl-cyclopropanecarboxylic acid [(R)-1-(6-ethoxy-pyridin-3-yl)-2-hydroxy-ethyl]-amide]

Reference: patent US9889122B2, “Positive allosteric modulators of nicotinic acetylcholine receptor” (H. Lundbeck A/S, priority 2011, dated 2018)
